Results reported in US12436156B2, “Methods of determining pH and calcium or chloride concentration in samples” (The University of Chicago, priority 2018, dated 2025).
Where a name gives a salt, the structure may show the parent alone.

How the values were obtained:
Format in all cases: cell-based, human
lysosomes in HDF cells [1] = experiment: 2-IM in pharmacologically induced cell culture models for NP-A/B and NP-C; settings: HDF cells from a healthy individual; 65 μM AH or 20 μM U18666A, 24 h
Method: Niemann Pick type A/B and C models were prepared according to the previous reported method. Cells were incubated with 65 μM of the acid sphingomyelinase (ASM) inhibitor amitriptyline (AH) and 20 μM of the NPC1 inhibitor U18666A for 24 h to create a NP-A/B and NP-C models respectively. The cells are pulsed with 2 μM of ChloropHoreLY and either 65 μM AH or 20 μM U18666A for 1 h, chased with either 65 μM AH or 20 μM U18666A for 9 h and then washed with 1×PBS and imaged.
Image analysis for pH and sensors. Images were analyzed with ImageJ/Fiji 2.0.0-rc-54/1.51h. pH and chloride measurements are performed as described previously. To generate a density plot to represent lysosomal populations, the individual D/A (Y-axis) versus the corresponding R/G (X-axis) values was first plotted for each lysosome that was obtained for a given fibroblast sample comprising ˜60 cells and ˜600 lysosomes. Density plots were generated using 2D Kernel Density plot on Origin 2018 SR1 b9.5.1.195 (OriginLab, USA). This converted the individual scatter points into a population matrix as a probability density function. The density plot is then pseudo colored to represent high density in red (values close to 1) and low density in blue (values closer to 0). Those points with <10% probability on the plot were discarded. For normalization between days, the point of highest density (value =1) of normal HDF cells was designated as the center of the plot with x,y coordinates (1,1). To normalize between experiments done on different days, the lysosomal pH and Cl− of a sample of normal HDF cells was always measured as well, the density plot of which served as the reference. All density plots acquired on the same day with the same settings were thus normalized to the HDF cell density plots to enable comparison of data across different days.

[2] = tested on: lysosomes of NP-C patient fibroblasts; experiment: Lysosomal population rescue using β-CD in NP-C patient fibroblasts (2-IM); settings: NP-C patient samples mutated in NPC1 or NPC2, 50 μM, 24 h
Method: (§1) Lysosomal population rescue using ASM and β-CD. Recombinant human acid sphingomyelinase was incubated with NP-A/B patient cells according to the previous method. Primary human fibroblasts derived from NP-A/B patients were maintained in DMEM medium with 1% FBS for 24 h. The medium was then changed to DMEM with 1% FBS containing 0.2% BSA and 5 μg of rhASM. After 24 h, the cells are pulsed with 2 μM of ChloropHoreLy for 1 h, chased for 9 h and then washed with 1×PBS and imaged. Primary human fibroblasts from NP-C patient were incubated with 50 μM of o-Hydroxypropyl-β-cyclodextrin (β-CD) for 24 h. The cells are pulsed with 2 μM of ChloropHoreLy and 50 μM of β-CD for 1 h, chased with 50 μM of β-CD for 9 h and then washed with 1×PBS and imaged.
(§2) Image analysis for pH and sensors. Images were analyzed with ImageJ/Fiji 2.0.0-rc-54/1.51h. pH and chloride measurements are performed as described previously. To generate a density plot to represent lysosomal populations, the individual D/A (Y-axis) versus the corresponding R/G (X-axis) values was first plotted for each lysosome that was obtained for a given fibroblast sample comprising ˜60 cells and ˜600 lysosomes. […] To normalize between experiments done on different days, the lysosomal pH and Cl− of a sample of normal HDF cells was always measured as well, the density plot of which served as the reference. […]

lysosomes in HDF cells [3] = experiment: 2-IM upon addition of lysosomal proton pump and ion channel blocker; settings: ChloropHoreLy labelled, 500 nM bafilomycin A1 or 300 μM NPPB, 45 min
Method: Lysosomal pH and chloride measurements. Fibroblast cells are pulsed with 2 μM of I^mLy, ChloropHore or ChloropHoreLy for 1 h, chased for 9 h (30 min pulse and 1 h chase for J774. A1, BHK-21 and T47D cells) and then washed with 1×PBS and subjected for imaging.
2-IM upon addition of lysosomal proton pump and ion channel blocker. Upon lysosome labeling, final concentration of 500 nM bafilomycinA1 and 300 μM of 5-nitro-2-(3-phenylpropyl-amino) benzoic acid (NPPB) were added to cells and incubated for 45 min. Cells was then washed with PBS and imaged in Hank's Balanced Salt Solution (HBSS) containing the respective blocker compounds.
as §2, with “lysosomes. Density plots were generated using 2D Kernel Density plot on Origin 2018 SR1 b9.5.1.195 (OriginLab, USA).” for “lysosomes.”

[4] = tested on: lysosomes of NP-A and NP-B patient fibroblasts; experiment: Lysosomal population rescue using ASM in NP-A/B patient fibroblasts (2-IM); settings: 5 μg rhASM, 24 h
Method: as §1, §2

| Molecule | high chloride, high acidity lysosome population (2-IM profile) (lysosomes in HDF cells [1]) | lysosome population in 2-IM profile (lysosomes in HDF cells [1]) | high Cl-, high acidity lysosome population (2-IM profile) (lysosomes in HDF cells [3]) | other results |
| --- | --- | --- | --- | --- |
| CCN(CC)CCO[C@H]1CC[C@@]2(C)C(=CC[C@@H]3[C@@H]2CC[C@]2(C)C(=O)CC[C@@H]32)C1 [U18666A] | depletion | monodisperse |  |  |
| o-2-hydroxypropyl-β-cyclodextrin [RCD] |  |  |  | lysosomes with higher lumenal Cl- and H+ content (2-IM profile) [2]: appearance; monodispersity of the 2-IM profile [2]: loss of monodispersity |
| CO/C1=C\C(C)=C\[C@@H](C)[C@@H](O)[C@@H](C)C/C(C)=C/C=C/[C@H](OC)[C@@H]([C@@H](C)[C@@H](O)[C@H](C)[C@@]2(O)C[C@@H](O)[C@H](C)[C@@H](C(C)C)O2)OC1=O [bafilomycin Al] |  |  | lost |  |
| CN(C)CCC=C1c2ccccc2CCc2ccccc21 [amitriptyline hydrochloride] | depletion | monodisperse |  |  |
| O=C(O)c1cc([N+](=O)[O-])ccc1NCCCc1ccccc1 [5-nitro-2-(3-phenylpropylamino) benzoic acid] |  |  | lost |  |
| rhASM: Recombinant human acid sphingomyelinase, enzyme replacement therapy for NP-A/B (protein, UniProt P17405 47-631, looked up) Sphingomyelin …: LALSDSRVLWAPAEAHPLSPQGHPARLHRIVPRLRDVFGWGNLTCPICKGLFTAINLGLKKEPNVARVGSVAIKLCNLLKIAPPAVCQSIVHLFEDDMVEVWRRSVLSPSEACGLLLGSTCGHWDIFSSWNISLPTVPKPPPKPPSPPAPGAPVSRILFLTDLHWDHDYLEGTDPDCADPLCCRRGSGLPPASRPGAGYWGEYSKCDLPLRTLESLLSGLGPAGPFDMVYWTGDIPAHDVWHQTRQDQLRALTTVTALVRKFLGPVPVYPAVGNHESTPVNSFPPPFIEGNHSSRWLYEAMAKAWEPWLPAEALRTLRIGGFYALSPYPGLRLISLNMNFCSRENFWLLINSTDPAGQLQWLVGELQAAEDRGDKVHIIGHIPPGHCLKSWSWNYYRIVARYENTLAAQFFGHTHVDEFEVFYDEETLSRPLAVAFLAPSATTYIGLNPGYRVYQIDGNYSGSSHVVLDHETYILNLTQANIPGAIPHWQLLYRARETYGLPNTLPTAWHNLVYRMRGDMQLFQTFWFLYHKGHPPSEPCGTPCRLATLCAQLSARADSPALCRHLMPDGSLPEAQSLWPRPLFC |  |  |  | high chloride, high acidity lysosome population (2-IM profile) [4]: reemergence |
